Assay results published in ChEMBL document CHEMBL1201862, “PubChem BioAssay data set” (2004).
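Step 1: Grow cells in 96-well plates. Step 2: Expose to compound for 48 hours at 5 concentrations. Step 3: Interpolate endpoints linearly; if unreached, use highest concentration. GI50 marks 50% less growth.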 Activity calls are given as the source filed them. Cut-off read from the data, not from the text of the source: active = GI50 up to about 1.1 µM and inactive = higher.

Key:
Assay in all cases: DTP human tumour cell line panel, 48 h
[1] = system: OVCAR-4
[2] = system: DMS-273
[3] = system: SK-MEL-28
[4] = system: RXF 393
[5] = system: OVCAR-3
[6] = system: DLD-1
[7] = system: ACHN
[8] = system: KM-20L2
[9] = system: CAKI-1
[10] = system: RXF 631
[11] = system: HCT-116
[12] = system: IGROV-1
[13] = system: SW-620
[14] = system: M14
[15] = system: K562
[16] = system: TK-10
[17] = system: A549
[18] = system: EKVX
[19] = system: SF-295
[20] = system: CCRF-CEM
[21] = system: SK-OV-3
[22] = system: RPMI-8226
[23] = system: HOP-92
[24] = system: SNB-78
[25] = system: U-251
[26] = system: SN12C
[27] = system: SK-MEL-5
[28] = system: HT-29
[29] = system: SNB-19
[30] = system: XF498
[31] = system: HL-60
[32] = system: LOX IMVI
[33] = system: SNB-75
[34] = system: DMS-114
[35] = system: UO-31
[36] = system: M19-MEL
[37] = system: NCI-H23
[38] = system: UACC-62
[39] = system: OVCAR-8
[40] = system: NCI-H460
[41] = system: COLO 205
[42] = system: UACC-257
[43] = system: HOP-62
[44] = system: HCT-15
[45] = system: MOLT-4
[46] = system: Malme-3M
[47] = system: HOP-18
[48] = system: OVCAR-5
[49] = system: LXFL 529
[50] = system: SK-MEL-2
[51] = system: A498
[52] = system: SF-539
[53] = system: NCI-H226
[54] = system: SF-268
[55] = system: HCC 2998
[56] = system: SR
[57] = system: KM12
[58] = system: 786-0
[59] = system: NCI-H522

COc1ccc(C2C(C(=O)O)=C(COC(C)=O)Oc3cc4c(cc32)OCO4)cc1 (stereo not drawn)
GI50 [1]: > 100 µM (inactive) | GI50 [2]: > 100 µM (inactive) | GI50 [3]: > 100 µM (inactive) | GI50 [4]: > 100 µM (inactive) | GI50 [5]: > 100 µM (inactive) | GI50 [6]: > 100 µM (inactive) | GI50 [7]: > 100 µM (inactive) | GI50 [8]: > 100 µM (inactive) | GI50 [9]: > 100 µM (inactive) | GI50 [10]: > 100 µM (inactive) | GI50 [11]: > 100 µM (inactive) | GI50 [12]: > 100 µM (inactive) | GI50 [13]: > 100 µM (inactive) | GI50 [14]: > 100 µM (inactive) | GI50 [15]: > 100 µM (inactive) | GI50 [16]: > 100 µM (inactive) | GI50 [17]: > 100 µM (inactive) | GI50 [18]: > 100 µM (inactive) | GI50 [19]: > 100 µM (inactive) | GI50 [20]: > 100 µM (inactive) | GI50 [21]: > 100 µM (inactive) | GI50 [22]: > 100 µM (inactive) | GI50 [23]: > 100 µM (inactive) | GI50 [24]: > 100 µM (inactive) | GI50 [25]: > 100 µM (inactive) | GI50 [26]: > 100 µM (inactive) | GI50 [27]: > 100 µM (inactive) | GI50 [28]: > 100 µM (inactive) | GI50 [29]: > 100 µM (inactive) | GI50 [30]: 40.7 µM (inactive) | GI50 [31]: > 100 µM (inactive) | GI50 [32]: > 100 µM (inactive) | GI50 [33]: > 100 µM (inactive) | GI50 [34]: > 100 µM (inactive) | GI50 [35]: > 100 µM (inactive) | GI50 [36]: > 100 µM (inactive) | GI50 [37]: > 100 µM (inactive) | GI50 [38]: > 100 µM (inactive) | GI50 [39]: > 100 µM (inactive) | GI50 [40]: > 100 µM (inactive) | GI50 [41]: > 100 µM (inactive) | GI50 [42]: > 100 µM (inactive) | GI50 [43]: > 100 µM (inactive) | GI50 [44]: > 100 µM | GI50 [45]: > 100 µM (inactive) | GI50 [46]: > 100 µM (inactive) | GI50 [47]: > 100 µM (inactive)

N#Cc1nc(Nc2ccc([N+](=O)[O-])cc2)sc1N
GI50 [1]: 33.8 µM (inactive) | GI50 [2]: 21.2 µM (inactive) | GI50 [3]: 22.9 µM (inactive) | GI50 [48]: 28.6 µM (inactive) | GI50 [5]: 16.9 µM (inactive) | GI50 [6]: 23.4 µM (inactive) | GI50 [7]: 9.62 µM (inactive) | GI50 [49]: 8.69 µM (inactive) | GI50 [8]: 23.9 µM (inactive) | GI50 [9]: 11.9 µM (inactive) | GI50 [50]: 21.6 µM (inactive) | GI50 [51]: 26.2 µM (inactive) | GI50 [52]: 4.02 µM (inactive) | GI50 [10]: 11.4 µM (inactive) | GI50 [11]: 11.3 µM (inactive) | GI50 [12]: 23.4 µM (inactive) | GI50 [13]: 20.5 µM (inactive) | GI50 [53]: 27.4 µM (inactive) | GI50 [14]: 22 µM (inactive) | GI50 [15]: 8.75 µM (inactive) | GI50 [16]: 22.9 µM (inactive) | GI50 [17]: 23.9 µM (inactive) | GI50 [18]: 32.2 µM (inactive) | GI50 [19]: 26.5 µM (inactive) | GI50 [20]: 3.4 µM (inactive) | GI50 [54]: 11.8 µM (inactive) | GI50 [21]: 26.9 µM (inactive) | GI50 [22]: 3.45 µM (inactive) | GI50 [23]: 27.3 µM (inactive) | GI50 [24]: 32.2 µM (inactive) | GI50 [25]: 9.68 µM (inactive) | GI50 [26]: 7.8 µM (inactive) | GI50 [55]: 11.7 µM (inactive) | GI50 [27]: 3.79 µM (inactive) | GI50 [56]: 0.675 µM (active) | GI50 [28]: 33.5 µM (inactive) | GI50 [29]: 17.7 µM (inactive) | GI50 [30]: 17.3 µM (inactive) | GI50 [31]: 3.53 µM (inactive) | GI50 [32]: 7.19 µM (inactive) | GI50 [33]: 39.4 µM (inactive) | GI50 [57]: 21.9 µM (inactive) | GI50 [35]: 7.38 µM (inactive) | GI50 [36]: 25.2 µM (inactive) | GI50 [37]: 4.44 µM (inactive) | GI50 [38]: 15.8 µM (inactive) | GI50 [39]: 19.4 µM (inactive) | GI50 [40]: 28.8 µM (inactive) | GI50 [41]: 14 µM (inactive) | GI50 [42]: 18.6 µM (inactive) | GI50 [58]: 21.2 µM (inactive) | GI50 [43]: 20.4 µM (inactive) | GI50 [44]: 12.5 µM | GI50 [45]: 2.48 µM (inactive) | GI50 [46]: 23.9 µM (inactive) | GI50 [47]: 61.2 µM (inactive) | GI50 [59]: 4.05 µM (inactive)

CC1OC(n2cc(Cl)c(=O)[nH]c2=O)C=C(OC(=O)c2ccccc2)C1=O (stereo not drawn)
GI50 [1]: > 100 µM (inactive) | GI50 [2]: > 100 µM (inactive) | GI50 [3]: > 100 µM (inactive) | GI50 [4]: > 100 µM (inactive) | GI50 [5]: > 100 µM (inactive) | GI50 [6]: > 100 µM (inactive) | GI50 [7]: > 100 µM (inactive) | GI50 [8]: > 100 µM (inactive) | GI50 [9]: > 100 µM (inactive) | GI50 [50]: > 100 µM (inactive) | GI50 [52]: > 100 µM (inactive) | GI50 [10]: > 100 µM (inactive) | GI50 [12]: > 100 µM (inactive) | GI50 [13]: > 100 µM (inactive) | GI50 [14]: > 100 µM (inactive) | GI50 [15]: > 100 µM (inactive) | GI50 [16]: > 100 µM (inactive) | GI50 [17]: > 100 µM (inactive) | GI50 [18]: > 100 µM (inactive) | GI50 [19]: > 100 µM (inactive) | GI50 [20]: > 100 µM (inactive) | GI50 [21]: > 100 µM (inactive) | GI50 [22]: > 100 µM (inactive) | GI50 [23]: > 100 µM (inactive) | GI50 [24]: > 100 µM (inactive) | GI50 [25]: > 100 µM (inactive) | GI50 [26]: > 100 µM (inactive) | GI50 [27]: > 100 µM (inactive) | GI50 [28]: > 100 µM (inactive) | GI50 [29]: > 100 µM (inactive) | GI50 [30]: > 100 µM (inactive) | GI50 [31]: > 100 µM (inactive) | GI50 [32]: > 100 µM (inactive) | GI50 [33]: > 100 µM (inactive) | GI50 [34]: > 100 µM (inactive) | GI50 [35]: > 100 µM (inactive) | GI50 [36]: > 100 µM (inactive) | GI50 [37]: > 100 µM (inactive) | GI50 [38]: > 100 µM (inactive) | GI50 [39]: > 100 µM (inactive) | GI50 [40]: > 100 µM (inactive) | GI50 [41]: > 100 µM (inactive) | GI50 [42]: > 100 µM (inactive) | GI50 [58]: > 100 µM (inactive) | GI50 [43]: > 100 µM (inactive) | GI50 [44]: > 100 µM | GI50 [45]: > 100 µM (inactive) | GI50 [46]: > 100 µM (inactive) | GI50 [47]: > 100 µM (inactive)
